How the values were obtained:
[1] = tested on: pERK in COLO829 cells (BRAF^V600E, heterozygous); assay: Phospho-ERK AlphaScreen assay, pERK inhibition in COLO829; format: cell-based; settings: Homo sapiens, COLO-829, 1 h, read-out: pERK inhibition IC50 COLO829
Method: (§1) Phospho-ERK AlphaScreen® assay: The degree of ERK phosphorylation was determined using an AlphaScreen® assay where an increase in ERK1/2 phosphorylation at Thr202/Tyr204 brought the donor and acceptor AlphaScreen® beads into close proximity, generating a signal for quantification. To determine the effects of compound treatment on phosphorylation of ERK1/2, cells were plated in a 96-well plate and treated with an 8-point titration of compound for one hour at 37° C. before lysis. To detect pERK, cell lysates were incubated with streptavidin-coated AlphaScreen® donor beads, anti-mouse IgG AlphaScreen® acceptor beads, a biotinylated anti-ERK1/2 rabbit antibody, and a mouse antibody that recognizes ERK1/2 only when it is phosphorylated on Thr202 and Tyr204. The biotinylated ERK1/2 antibody binds to both the streptavidin-coated AlphaScreen® donor beads and to ERK1/2 (regardless of its phosphorylation state), and the phospho-ERK1/2 antibody binds to the acceptor beads and to ERK1/2 that is phosphorylated at Thr202/Tyr204. An increase in ERK1/2 phosphorylation at Thr202/Tyr204 brings the donor and acceptor AlphaScreen® beads into close proximity, generating a signal that can be quantified on an EnVision reader (Perkin Elmer).
(§2) Using AlphaScreen® technology, the ability of Formula I to affect the phosphorylation of ERK and MEK in the cells was measured quantitatively. Following treatment with compound, the cells were lysed, and a sample of the lysate was transferred to an assay plate. The lysate was mixed with antibodies directed against total ERK/MEK, antibodies that recognize specific phosphorylation sites on ERK/MEK, AlphaScreen® anti-mouse IgG Acceptor beads, and Streptavidin Donor beads. Upon excitation of the donor beads with laser light at 680 nm, singlet oxygen was produced. This singlet oxygen was rapidly quenched, unless the AlphaScreen® Acceptor beads were in close proximity, in which case a proximity signal can be measured at 580 nm. In the presence of phosphorylated ERK/MEK, there is a very strong proximity signal.
(§3) 1. One day before the assay, 50,000 cells were plated in each well of a 96-well tissue-culture-treated plate (Corning #3610) in a 50 μL volume. Cells were incubated at 37° C. overnight.
(§4) 2. Compounds were diluted in DMSO to 500× final concentration. Each compound was plated as an 8-point titration, using 1:3 dilutions in DMSO. The maximum concentration was about 5 mM.
(§5) 3. 1 μl of compound was added to each well of a 96-well polypropylene plate (Corning #3363). For A375, COLO829, SK-MEL-3, HCT116, and HT-29, the high control was DMSO, and the low control was 10 μM PLX4720 (CAS No. 918505-84-7). For B9 and IPC-298, the high control was 3.33 μM PLX4720, and the low control was DMSO. 4. 249 μL growth media was added to compounds, diluting them 250-fold. 5. […] The compound was incubated with the cells at 37° C. for one hour. 6. The media was aspirated, and the cells were lysed in 50 μL of ice-cold 1× Cell Lysis buffer. The plates were incubated on ice for 5 minutes to allow complete lysis of the cells. 7. A mixture of biotinylated donor antibody, acceptor antibody, and anti-mouse IgG AlphaScreen® acceptor beads in 1× AlphaLISA immunoassay buffer was prepared. 8. 5 μL of lysate was transferred to a 384-well assay plate (Perkin Elmer #6005359). 5 μL of the antibody and acceptor bead mixture was added. The plates were spinned.

[2] = tested on: pERK in A375 cells (BRAF^V600E, homozygous); assay: Phospho-ERK AlphaScreen assay, pERK inhibition in A375; format: cell-based; settings: Homo sapiens, A-375, 1 h, read-out: pERK inhibition IC50 A375
Method: as §1, §2, §3, §4, §5

[3] = tested on: pERK in B9 cells (HRAS^Q61L); assay: Phospho-ERK AlphaScreen assay, pERK activation in B9; format: cell-based, murine; settings: Mus musculus, read-out: pERK activation EC50 B9
Method: as §1, §2, §3, §4, §5

[4] = tested on: pERK in HCT116 cells (KRAS^G13D); assay: Phospho-ERK AlphaScreen assay, pERK activation in HCT116; format: cell-based; settings: Homo sapiens, HCT-116, read-out: pERK activation EC50 HCT116
Method: as §1, §2, §3, §4, §5

[5] = tested on: pERK in IPC-298 cells (NRAS^Q61L); assay: Phospho-ERK AlphaScreen assay, pERK activation in IPC-298; format: cell-based, human; settings: Homo sapiens, IPC-298, read-out: pERK activation EC50 IPC298
Method: as §1, §2, §3, §4, §5

[6] = target: NIH/3T3 cells stably expressing KIAA1549-BRAF fusions (Homo sapiens, UniProt P15056); assay: BRAF fusion xenograft tumor growth; format: in vivo, balb/c nu/nu mice; settings: three of the four KIAA1549-BRAF fusions; PLX4720 chow
Method: NIH/3T3 (ATCC® CRL-1658™) cells stably expressing KIAA1549-BRAF fusions (Fusion-1, Fusion-2, Fusion-3, and Fusion-4) were injected into the flank of balb/c nu/nu mice. Tumor growth was measured with calipers. Ellipsoid tumor volume was calculated using the following formula: volume=½·length·width^2.

NIH/3T3 cells stably expressing KIAA1549-BRAF fusions, sequence (P15056 448-766 limits assumed): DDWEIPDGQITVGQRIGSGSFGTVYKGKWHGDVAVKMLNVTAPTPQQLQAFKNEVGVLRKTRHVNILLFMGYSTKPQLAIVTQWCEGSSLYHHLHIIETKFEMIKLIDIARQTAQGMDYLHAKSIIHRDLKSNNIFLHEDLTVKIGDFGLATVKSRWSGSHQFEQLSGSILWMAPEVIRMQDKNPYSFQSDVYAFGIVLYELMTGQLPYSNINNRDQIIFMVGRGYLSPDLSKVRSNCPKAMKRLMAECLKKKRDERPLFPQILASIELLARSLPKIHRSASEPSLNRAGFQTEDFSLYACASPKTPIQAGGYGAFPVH

Row | Compound | IC50 [1] [µM] | IC50 [2] [µM] | EC50 [3] [µM] | EC50 [4] [µM] | EC50 [5] [µM] | Effect on xenograft tumor growth (in words) [6]
1 | CNC(=O)c1cc(Oc2ccc(NC(=O)Nc3ccc(Cl)c(C(F)(F)F)c3)cc2)ccn1 [Sorafenib, sorafenib] | 2 | 4.4 | 0.025 | 0.086 | 0.019 | –
2 | CCCS(=O)(=O)Nc1ccc(F)c(C(=O)c2c[nH]c3ncc(Cl)cc23)c1F [PLX4720, reference compound] | – | – | – | – | – | increased tumor growth
3 | CC(C)(C)c1nc(-c2cccc(NS(=O)(=O)c3c(F)cccc3F)c2F)c(-c2ccnc(N)n2)s1 [Dabrafenib, dabrafenib] | 0.005 | 0.001 | 0.01 | 0.003 | 0.01 | –

From patent US9814714B2, “Kinase modulation, and indications therefor” (Plexxikon Inc., priority 2015, dated 2017)
